# Results from US20050075398A1, “Neuroprotectin D1 protects against cellular apoptosis, stroke damage, alzheimer's disease and retinal diseases” (priority 2003, published 2005).
# Assays:
# [1] = test system: infarcted volume (stroke volume); experiment: Stroke volume by TTC staining after MCA-O; assay type: in vivo, mouse
# Procedure: Assessment of stroke volume. Forty-eight hours after MCA-O, mice were killed, and brains were dissected and immersed in ice-cold saline. The dissected brains were embedded in agar blocks and sectioned into coronal slices 1 mm thick by a vibratome (Vibratome Co. St. Louis, Mo.). Sections were incubated at room temperature in a 3% buffered solution of 2,3,5,-triphenyltetrazolium chloride (TTC). Once color developed (10 to 15 min), sections were fixed in 10% buffered formalin, and kept at 4° C. until images were recorded by a camera (Cool-snap, Nikon) mounted to a dissecting microscope. In the digital images, total brain area and stroke areas were analyzed and calculated by Adobe Photoshop software. Serial sections were made for all animals. (Digital images not included).
# To test for in vivo bioactivity of 10,17S-docosatriene (NPD1) in brain during focal ischemic stroke, Alzet mini-pumps were implanted into the third ventricle to deliver the lipid messenger over the 48 h reperfusion following 1 h of MCA-O. Brain coronal sections were incubated at room temperature in 3% buffered TTC (triphenyltetrazolium chloride) for approximately 10-15 min. The docosanoid 10,17S-docosatriene (NPD1) was infused (1 μg over 48 h by implanted Alzet mini-pumps). In photos, colorless areas indicated mitochondrial damage reflecting the inability to metabolize TTC. […]
# [2] = test system: NF-κB-DNA binding activity; experiment: EMSA of NF-κB in hippocampus after MCA-O; assay type: in vivo, mouse; conditions: ipsilateral hippocampus; 1 h MCA-O, 2 h reperfusion; infused into third ventricle 3 h at 0.25 μl/h (NPD1 0.16 μg/ml)
# Procedure: Electrophoretic mobility-shift assay (EMSA) of human AP1, HIF-1α, NF-κBp50/p65, and STAT-1α. Nuclear protein extracts (NPXTs) were prepared from one to three 3.5 cm-diameter wells of HN cells and quantitated. NPXTs (5 μg) derived from HN cells were incubated with[γ-^32P]-ATP (˜3000 Ci/mmol)-end-labeled AP1, HIF-1α, NF-κκBp50/p65, or STAT-1α consensus and mutant oligonucleotides in 5-μl volumes, reacted for 30 min on ice, analyzed on 5% or 10% acrylamide/90 mM Tris-borate pH 8.4, 1 mM EDTA (TBE) gels, dried onto 2-mm Whatman filter paper at 80° C. for 2 h, and phosphorimaged using a Typhoon Variable Mode Imager (Amersham Pharmacia Biotech, Piscataway, N.J. ).
# FIGS. 7A, 7B, and 7C show mouse hippocampus after 1 h MCA-O was followed by 2 h reperfusion, where either vehicle, DHA, or 10,17S-docosatriene (NPD1) (0.16 μg/ml) was infused into the third ventricle for 3 h at 0.25 μl/h. […] NF-κB was increased over two fold in the ipsilateral hippocampus after MCA-O, and the infusion of either DHA or 10,17S-docosatriene (NPD1) inhibited ischemia-reperfusion-induced NF-κB activation by 28% and 48%, respectively (FIG. 7A).
# ARPE-19 cells [3] = experiment: ELISA detection of mono- and oligonucleosomes; assay type: cell-based, human; conditions: 50 nM
# Procedure: Assessment of apoptosis by mono- and oligonucleosome analysis: Cells were homogenized in a lysis buffer and 20-μl aliquots were applied on streptavidin-coated 96-well plates. Cells were incubated for 2 h with 80 μl incubation buffer containing the monoclonal antibodies directed against DNA and histones for detection of mono- and oligonucleosomes (Roche Diagnostics Corporation Cat. # 1774425). After the unreacted antibodies were washed away, the immune complexes of DNA-histone-antibodies remain bound to the streptavidin-coated plates, where detection was attained by horseradish-peroxidase reaction.
# DNA fragmentation was also detected by ELISA detection of mono- and oligonucleosomes in ARPE cells (Roche Diagnostics Corporation Cat. # 1774425). Cells were homogenized in a lysis buffer, and 20-μl aliquots were applied on streptavidin-coated 96-well plates. Cells were incubated for 2 h with 80 μl incubation buffer containing the monoclonal antibodies directed against DNA and histones for detection of mono- and oligonucleosomes. After the unreacted antibodies were washed away, the immune complexes of DNA-histone-antibodies remained bound to the streptavidin-coated plates, where detection is obtained through horseradish-peroxidase reaction. Quantitative analysis was performed in a Spectramax-250 (Molecular Devices) spectrophotometer.
# ARPE-19 cells [4] = experiment: DNA fragmentation by differential sedimentation after 3H-thymidine labeling; assay type: cell-based, human; conditions: 50 nM; TNF-α 10 ng and H2O2 800 μM for 6-8 h
# Procedure: DNA fragmentation assay: Cells (80% confluent) growing in DMEM (10% FBS) in 6-well plates were labeled with 1 μCi ^3H-thymidine per well for 24 h at 37° C. The day-old medium was replaced to remove the unincorporated ^3H-thymidine. Cells were then serum-starved for 1 h and treated with TNFα plus H2O2 for 6-8 h. Cells were harvested, centrifuged at 200×g for 10 min at 4° C. An aliquot of the supernatant was precipitated with 25% TCA, and radioactivity was measured. This represents the amount of ^3H-thymidine released during the oxidative stress induced by TNFα plus H2O2 The cell pellet was solubilized in lysis buffer (0.2% Triton X-100 in 10 mM Tris/EDTA). The intact DNA and fragmented DNA were separated by centrifugation at 13,000×g for 10 min at 4° C. Fragmented DNA was precipitated from the supernatant with 25% TCA. The pellets were resuspended in 1% SDS and radioactivity was measured. This represents the intact DNA in the cells. The amount of DNA fragmentation is expressed as percentage of fragmented DNA over the control, as described in Kim, H. Y., Akbar, M., Lau, A. & Edsall, L. (2000) J. Biol. Chem. 275:35215-35223.
# These observations indicate that oxidative stress triggered DNA fragmentation and RPE apoptosis, and that the increase in NPD1 inhibited RPE cell death. […] DNA fragmentation was evaluated after TCA precipitation and expressed as percentage over intact DNA. […]
smiles,measurement,setting,value
"CC/C=C\C[C@H](O)\C=C/C=C/C=C/[C@H](O)C/C=C\C/C=C\CCC(=O)O [NPD1, 10,17S-docosatriene]",reduction of stroke volume,"[1]; 1 μg over 48 h at 250 nl/h intracerebroventricular, after 48 h",50%
same,"focal infarcted volume, percentage of total volume","[1]; 1 μg over 48 h by Alzet mini-pump into third ventricle, 1 h MCA-O, 48 h reperfusion, vehicle about 30%",less than 15%
same,inhibition of ischemia-reperfusion-induced NF-κB activation,[2],48%
same,effect on TNFα/H2O2-induced accumulation of mono- and oligonucleosomes,ARPE-19 cells [3],inhibited
same,effect on DNA fragmentation (3H-thymidine),ARPE-19 cells [4],inhibited
